The results in this text go back to the Kinase Knowledgebase extract (Sharma et al. 2016).

The structures appear in SMILES notation.

Sequence of EGFR (P00533 whole entry, looked up): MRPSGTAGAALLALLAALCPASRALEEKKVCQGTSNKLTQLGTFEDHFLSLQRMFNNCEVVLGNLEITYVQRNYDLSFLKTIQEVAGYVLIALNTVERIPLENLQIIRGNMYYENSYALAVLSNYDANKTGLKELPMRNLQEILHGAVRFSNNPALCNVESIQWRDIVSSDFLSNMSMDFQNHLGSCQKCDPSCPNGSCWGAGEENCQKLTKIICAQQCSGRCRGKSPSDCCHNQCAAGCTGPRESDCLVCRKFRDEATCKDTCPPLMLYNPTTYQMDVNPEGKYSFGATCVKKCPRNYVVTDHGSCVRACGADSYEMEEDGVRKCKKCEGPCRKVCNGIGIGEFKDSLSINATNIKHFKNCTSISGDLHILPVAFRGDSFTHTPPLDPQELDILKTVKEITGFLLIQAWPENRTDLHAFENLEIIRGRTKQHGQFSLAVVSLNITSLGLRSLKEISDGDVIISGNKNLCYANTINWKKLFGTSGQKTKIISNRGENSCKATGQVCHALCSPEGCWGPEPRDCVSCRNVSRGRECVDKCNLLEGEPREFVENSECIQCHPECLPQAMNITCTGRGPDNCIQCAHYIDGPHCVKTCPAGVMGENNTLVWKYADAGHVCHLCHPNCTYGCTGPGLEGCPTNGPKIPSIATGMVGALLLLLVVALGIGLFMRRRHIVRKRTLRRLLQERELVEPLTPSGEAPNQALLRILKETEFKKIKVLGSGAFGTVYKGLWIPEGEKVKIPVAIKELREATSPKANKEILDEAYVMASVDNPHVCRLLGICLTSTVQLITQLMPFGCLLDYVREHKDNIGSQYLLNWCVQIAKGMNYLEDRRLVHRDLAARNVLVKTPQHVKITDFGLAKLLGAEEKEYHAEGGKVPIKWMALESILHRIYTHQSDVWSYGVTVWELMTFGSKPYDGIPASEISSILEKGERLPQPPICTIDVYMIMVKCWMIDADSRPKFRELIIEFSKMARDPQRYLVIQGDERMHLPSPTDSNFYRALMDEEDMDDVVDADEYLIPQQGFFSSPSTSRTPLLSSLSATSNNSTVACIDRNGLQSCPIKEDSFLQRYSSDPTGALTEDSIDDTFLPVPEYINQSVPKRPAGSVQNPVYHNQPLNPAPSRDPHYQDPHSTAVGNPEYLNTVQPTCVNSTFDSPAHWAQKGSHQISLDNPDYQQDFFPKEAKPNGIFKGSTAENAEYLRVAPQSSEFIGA

This experiment addresses EGFR (UniProt P00533).
As for `CCCN(CCS(C)(=O)=O)Cc1ccc(-c2ccc3ncnc(Nc4ccc(OCc5cccc(F)c5)c(Cl)c4)c3c2)o1`, the IC50 (commonly the midpoint of a concentration-inhibition curve) is less than 100 nM. To `O=S(=O)(CCNCc1ccc(-c2ccc3ncnc(Nc4ccc(OCc5cccc(F)c5)c(Cl)c4)c3c2)o1)c1ccccc1` belongs less than 100 nM; to `CCCS(=O)(=O)CCNCc1ccc(-c2ccc3ncnc(Nc4ccc(OCc5cccc(F)c5)c(Cl)c4)c3c2)o1`, less than 100 nM. For the molecule `O=S(=O)(CCOCc1ccc(-c2ccc3ncnc(Nc4ccc(OCc5cccc(F)c5)c(Cl)c4)c3c2)o1)c1ccccc1`, the IC50 is less than 100 nM. The figure for `CS(=O)(=O)CCN(CC#N)Cc1ccc(-c2ccc3ncnc(Nc4ccc(OCc5cccc(F)c5)c(Cl)c4)c3c2)o1` is less than 100 nM.

Regarding `CS(=O)(=O)CCNCCCc1ccc(-c2ccc3ncnc(Nc4ccc(OCc5ccccc5)c(Cl)c4)c3c2)o1`, the IC50 is less than 100 nM. To `CCCS(=O)(=O)CCNCc1ccc(-c2cc3c(Nc4ccc(OCc5cccc(F)c5)cc4)ncnc3cn2)o1` belongs less than 100 nM; to `Cn1ccnc1S(=O)(=O)CCNCc1ccc(-c2ccc3ncnc(Nc4ccc(OCc5cccc(F)c5)c(Cl)c4)c3c2)o1`, less than 100 nM; to `CCN(CCS(C)(=O)=O)Cc1ccc(-c2ccc3ncnc(Nc4ccc(OCc5cccc(F)c5)c(Cl)c4)c3c2)o1`, less than 100 nM. The figure for `C=CS(=O)(=O)CCOCc1ccc(-c2ccc3ncnc(Nc4ccc(OCc5cccc(F)c5)c(Cl)c4)c3c2)o1` is less than 100 nM. To `O=S(=O)(CCNCc1ccc(-c2ccc3ncnc(Nc4ccc(OCc5cccc(F)c5)c(Cl)c4)c3c2)o1)c1ccccn1` belongs less than 100 nM.

The molecule `CS(=O)(=O)CCOCc1ccc(-c2ccc3ncnc(Nc4ccc(OCc5cccc(F)c5)c(Cl)c4)c3c2)o1` had an IC50 of less than 100 nM.
